Laboratory results taken from ChEMBL document CHEMBL1121801, “Salicylamide derivatives related to medroxalol with alpha- and beta-adrenergic antagonist and antihypertension activity” (J Med Chem, 1981).

Key:
Rattus norvegicus [1] = assay: Antihypertensive activity in spontaneously hypertensive rats(SHR) at 50 mg/kg peroral dose after 4 h, expressed as decrease in systolic blood pressure; format: functional, Artery; settings: route oral
Adrenergic receptor beta [2] = biological target: T1, Adrenergic receptor beta (Homo sapiens, UniProt P08588+P07550+P13945); assay: In vitro blocking activity against beta adrenergic receptor, isolated from guinea pig atria; format: protein assay
[3] = biological target: Beta-2 adrenergic receptor (Canis lupus familiaris) (UniProt P54833);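 note: Beta-2 blockade of isoproterenol-induced vasodepression in anesthetized dogs, given intravenously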
Chain of Beta-2 adrenergic receptor (Canis lupus familiaris) (P54833 whole entry, looked up): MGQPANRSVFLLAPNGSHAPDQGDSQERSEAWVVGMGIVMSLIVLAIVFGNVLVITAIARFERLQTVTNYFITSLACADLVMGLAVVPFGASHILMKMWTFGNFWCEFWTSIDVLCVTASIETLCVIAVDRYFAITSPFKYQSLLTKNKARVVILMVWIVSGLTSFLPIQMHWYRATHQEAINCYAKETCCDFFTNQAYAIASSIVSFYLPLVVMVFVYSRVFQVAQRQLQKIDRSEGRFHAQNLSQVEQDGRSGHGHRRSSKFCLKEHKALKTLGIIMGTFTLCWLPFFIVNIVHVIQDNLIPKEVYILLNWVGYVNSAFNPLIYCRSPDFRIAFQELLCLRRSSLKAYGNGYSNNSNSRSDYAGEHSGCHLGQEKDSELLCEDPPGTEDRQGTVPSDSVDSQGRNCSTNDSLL
Description: In vivo sympatholytic activity (isoproterenol-induced vasodepression) at beta 2-adrenergic receptor in anesthetized dog, iv

[4] = biological target: T2, Adrenergic receptor alpha-1 (Homo sapiens, UniProt P35348+P25100+P35368); assay: In vitro blocking activity against alpha adrenergic receptor, isolated from rabbit aortic strip; format: protein assay, Oryctolagus cuniculus
T2 sequence (P35348 whole entry): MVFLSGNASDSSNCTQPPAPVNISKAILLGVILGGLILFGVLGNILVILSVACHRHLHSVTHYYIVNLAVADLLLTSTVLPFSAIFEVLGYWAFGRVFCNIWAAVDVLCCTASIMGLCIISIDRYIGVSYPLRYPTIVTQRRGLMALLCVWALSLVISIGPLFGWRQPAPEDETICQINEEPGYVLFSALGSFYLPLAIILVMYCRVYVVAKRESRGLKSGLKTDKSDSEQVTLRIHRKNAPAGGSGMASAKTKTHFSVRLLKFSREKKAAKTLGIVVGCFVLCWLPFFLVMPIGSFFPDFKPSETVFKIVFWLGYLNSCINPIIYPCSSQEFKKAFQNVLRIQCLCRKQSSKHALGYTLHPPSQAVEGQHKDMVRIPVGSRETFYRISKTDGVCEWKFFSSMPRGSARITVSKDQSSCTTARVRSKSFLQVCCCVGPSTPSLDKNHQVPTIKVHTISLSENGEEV
T2 sequence (P25100 whole entry): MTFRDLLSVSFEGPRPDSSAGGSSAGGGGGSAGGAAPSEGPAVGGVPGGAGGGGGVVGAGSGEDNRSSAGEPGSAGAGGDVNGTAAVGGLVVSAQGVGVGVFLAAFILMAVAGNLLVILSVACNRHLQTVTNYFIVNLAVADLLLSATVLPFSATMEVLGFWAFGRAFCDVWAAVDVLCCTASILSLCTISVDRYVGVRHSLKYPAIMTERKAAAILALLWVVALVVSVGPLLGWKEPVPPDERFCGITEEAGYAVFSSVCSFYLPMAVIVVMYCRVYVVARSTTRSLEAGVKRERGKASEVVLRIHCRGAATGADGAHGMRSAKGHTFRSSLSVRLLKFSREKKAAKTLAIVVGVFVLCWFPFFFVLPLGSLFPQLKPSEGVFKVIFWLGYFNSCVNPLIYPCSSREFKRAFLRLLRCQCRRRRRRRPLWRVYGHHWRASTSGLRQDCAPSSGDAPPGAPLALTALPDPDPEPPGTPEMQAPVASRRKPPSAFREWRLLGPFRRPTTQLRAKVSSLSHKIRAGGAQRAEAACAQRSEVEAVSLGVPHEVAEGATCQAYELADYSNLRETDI
T2 sequence (P35368 whole entry): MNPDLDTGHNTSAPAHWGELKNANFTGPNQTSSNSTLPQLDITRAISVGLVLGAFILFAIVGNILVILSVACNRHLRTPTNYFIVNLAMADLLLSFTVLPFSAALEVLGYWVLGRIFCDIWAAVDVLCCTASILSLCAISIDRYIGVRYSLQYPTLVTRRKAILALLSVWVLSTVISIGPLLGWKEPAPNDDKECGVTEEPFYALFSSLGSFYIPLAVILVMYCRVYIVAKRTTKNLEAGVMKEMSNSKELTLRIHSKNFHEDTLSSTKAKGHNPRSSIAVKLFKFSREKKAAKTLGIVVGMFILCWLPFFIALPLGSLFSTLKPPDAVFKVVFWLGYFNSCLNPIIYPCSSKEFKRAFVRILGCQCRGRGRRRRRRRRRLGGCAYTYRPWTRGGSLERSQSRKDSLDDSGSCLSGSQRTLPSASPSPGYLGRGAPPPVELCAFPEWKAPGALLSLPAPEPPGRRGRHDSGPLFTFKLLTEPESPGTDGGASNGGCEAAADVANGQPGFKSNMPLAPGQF

Oryctolagus cuniculus = organism: Oryctolagus cuniculus; assay: (§1) Ratio of pA2 for beta-adrenergic receptor to that of alpha-adrenergic receptor
Rattus norvegicus [5] = assay: Antihypertensive activity in spontaneously hypertensive rats(SHR) at 50 mg/kg peroral dose after 1 h, expressed as decrease in systolic blood pressure; format: functional, Artery; settings: route oral
[6] = biological target: Beta-1 adrenergic receptor (Homo sapiens) (UniProt P08588); settings: Canis lupus familiaris;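 note: anesthetized dogs dosed intravenously, sympatholytic action measured as inhibition of the chronotropic response to isoproterenol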
Chain of Beta-1 adrenergic receptor (Homo sapiens) (P08588 whole entry, looked up): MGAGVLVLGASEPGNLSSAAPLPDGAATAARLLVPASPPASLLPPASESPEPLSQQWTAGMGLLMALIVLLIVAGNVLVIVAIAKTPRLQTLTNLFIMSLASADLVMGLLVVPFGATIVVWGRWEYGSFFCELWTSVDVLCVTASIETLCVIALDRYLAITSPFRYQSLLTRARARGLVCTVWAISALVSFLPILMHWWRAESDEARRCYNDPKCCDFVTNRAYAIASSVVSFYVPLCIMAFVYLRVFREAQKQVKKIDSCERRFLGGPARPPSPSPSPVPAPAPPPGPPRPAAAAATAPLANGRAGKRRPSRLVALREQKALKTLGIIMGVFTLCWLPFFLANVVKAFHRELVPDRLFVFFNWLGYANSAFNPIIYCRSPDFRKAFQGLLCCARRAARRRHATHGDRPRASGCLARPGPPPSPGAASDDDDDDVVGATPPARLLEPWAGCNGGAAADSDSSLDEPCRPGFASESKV
Description: In vivo sympatholytic activity (isoproterenol-induced chronotropy) at beta 1-adrenergic receptor in anesthetized dog, iv

Cavia porcellus = organism: Cavia porcellus; assay: spasmolytic activity in isolated guinea pig ileum preparation;- log KB; (Bacl2); format: functional, organism-based; settings: read-out: pA2 (converted)
[7] = biological target: Adrenergic receptor alpha (Homo sapiens) (UniProt P35348+P08913+P18825+P25100+P35368+P18089); settings: Canis lupus familiaris
Description: In vivo sympatholytic activity (phenylephrine-induced vasopressor response) at alpha-adrenergic receptor in anesthetized dog, iv

Rattus norvegicus [8] = assay: Compound was tested for antihypertensive activity in spontaneously hypertensive rats(SHR)at 50 mg/kg (po) dose after 1 h; format: functional
Rattus norvegicus [9] = assay: Compound was tested for antihypertensive activity n spontaneously hypertensive rats(SHR),at 50 mg/kg (po) dose after 4 h; format: functional
[10] = biological target: T2, Adrenergic receptor alpha-1; assay: Compound was tested in vitro for Alpha adrenergic receptor blocking activity in the isolated rabbit aortic strip preparation; - log KB; parameters: species or system Oryctolagus cuniculus; settings: target entry is the homologue from another species
Adrenergic receptor beta [11] = biological target: T1, Adrenergic receptor beta; assay: as §1; format: protein assay; settings: Cavia porcellus

Row | Compound | BP decrease (Rattus norvegicus [1]) [mmHg] | pA2 (Adrenergic receptor beta [2]) | DR10 [3] [mg/kg] | pA2 [4] | Ratio (Oryctolagus cuniculus) | BP decrease (Rattus norvegicus [5]) [mmHg] | DR10 [6] [mg/kg] | Kb (Cavia porcellus) [nM] | DR10 [7] [mg/kg] | BP decrease (Rattus norvegicus [8]) [mmHg] | BP decrease (Rattus norvegicus [9]) [mmHg] | pA2 [10] | Ratio (Adrenergic receptor beta [11])
1 | COc1ccc(C(O)CNC(C)CCc2ccc3c(c2)OCO3)cc1C(N)=O.Cl (centres undefined) | 78 | 8.46 | 1.64 | < 5.14 | > 2090 | 76 | 0.23 | 43700 | 9.68 |  |  |  | 
2 | CCCCCCCCCCCCNC(=O)c1cc(C(O)CNC(C)CCc2ccc3c(c2)OCO3)ccc1O.Cl (centres undefined) |  | 4.53 |  | < 5 |  |  |  | < 63100 |  | 16 | 18 |  | 
3 | CC(CCc1ccc2c(c1)OCO2)NCC(O)c1ccc(O)c(C(=O)NCC(C)(C)C)c1.Cl (centres undefined) | 24 | 5.88 | > 10 | 6.05 | 0.8 | 55 | > 10 | 126 | 6.6 |  |  |  | 
4 | Cc1ccccc1N1CCN(CC(O)c2ccc(O)c(C(N)=O)c2)CC1.Cl.Cl (centres undefined) | 37 | 6.7 | > 10 | 7.57 | 0.1 | 48 | 15.3 | 1860 | 1.09 |  |  |  | 
5 | CC(Cc1ccc2c(c1)OCO2)NCC(O)c1ccc(O)c(C(N)=O)c1 (centres undefined) | 73 | 5.97 | 7.13 | 6.04 | 0.9 | 79 | 6.75 | 4570 | 16 |  |  |  | 
6 | CC(CCc1ccc2c(c1)OCO2)NCC(O)c1ccc(O)c(C(N)=O)c1.Cl (centres undefined) [MEDROXALOL HYDROCHLORIDE] | 90 | 7.82 | 1.17 |  | 55 | 88 | 0.84 | 2340 | 3.86 |  |  | 6.08 | 
7 | Cc1ccc(N(CC2=NCCN2)c2cccc(O)c2)cc1.Cl [PHENTOLAMINE HYDROCHLORIDE] |  |  |  |  |  |  |  |  |  | 62 | 60 |  | 
8 | CC(C)NC(=O)c1cc(C(O)CNC(C)CCc2ccc3c(c2)OCO3)ccc1O.Cl (centres undefined) | 10 | 5.88 | 14.8 | 5.85 |  | 48 | 22.5 | 417 | 4.84 |  |  |  | 1.1
9 | CCNC(=O)c1cc(C(O)CNC(C)CCc2ccc3c(c2)OCO3)ccc1O.Cl (centres undefined) | 108 | 6.36 | 16.8 | 5.86 | 3.2 | 95 | 11.8 | 1740 | 3.22 |  |  |  | 
10 | CNC(=O)c1cc(C(O)CNC(C)CCc2ccc3c(c2)OCO3)ccc1O.Cl (centres undefined) | 91 | 6.69 | 3.61 | 5.9 | 6.2 | 84 | 8.63 | 380 | 5.44 |  |  |  | 
